Measured values as given in article PMC10835127, “Viruses traverse the human proteome through peptide interfaces that can be biomimetically leveraged for drug discovery” (Proceedings of the National Academy of Sciences of the …, 2024).
Read-outs that look alike come from different tables or passages of the source.

Columns and labels:
[1] = test system: diet-induced obese model of NASH; assay: NASH mouse model (AMLN diet-induced obese); type: in vivo, C57BL/6JRj mice; conditions: oral, 8 wk; dEF3122 twice daily 7 or 20 mg/kg, OCA once daily 7 mg/kg; vs vehicle
Procedure: Fig. 6. Effect of the lead compound in a diet-induced obese model of NASH. Mice fed with a high fat, high fructose, and cholesterol supplemented diet for 38 wk were then treated in the last 8 wk with vehicle, dEF3122, or OCA (obeticholic acid) at indicated concentrations (n = 12 animals per group). (A and B) Histopathological mean score changes between the beginning and end of the treatment for liver portal inflammation (A) and liver portal fibrosis (B) are shown with representative stained liver sections of hematoxylin and eosin (H&E) and picrosirius red stains, respectively. (C–E) (C) Areas of kidney fibrosis at the end of the treatment are shown as % of the total area of the selected fields with representative sections of the kidney stained with picrosirius red. (D) % CD3 and (E) % F4/80 positive areas in kidneys with representative sections of CD3 and F4/80 immunostainings. *P < 0.05, **P < 0.01, and ***P < 0.001 from the T test with a preliminary nonsignificant Shapiro–Wilk test or from Wilcoxon signed–rank test otherwise.
Five-week-old male C57BL/6JRj mice were fed either chow diet or AMLN diet (40% total fat kcal of which 18.5% were trans-fat kcal, 20% fructose, and 2% cholesterol). This diet was maintained for 30 wk prior to study initiation. Three weeks prior to study initiation, liver biopsies were taken, and animals with steatosis grade <2 and fibrosis stage <1 were excluded from the study. Prior to the first administration of the test compound, stratified randomization of mice into treatment groups was performed according to collagen 1a1 (IHC) morphometry from the week 3 biopsies. Each treatment group consisted of 12 mice. For a total of 8 wk, compound dEF3122 was administered orally, twice daily at a concentration of 7 mg/kg or 20 mg/kg. OCA was administered orally, once daily at a concentration of 7 mg/kg. Animals were killed at the end of the treatment, and livers and kidneys were collected. […]
NASH histopathology and immunochemistry
Livers were fixed in 10 % neutral buffered formalin and paraffin-embedded; and sections were stained with H&E and picrosirius red to analyze their morphology. Histopathological analysis was performed by a pathologist blinded to the study. Fibrosis was evaluated by quantification of the picrosirius red positive areas. Inflammation was graded by counting the H&E positive inflammatory foci per field.
Kidneys were fixed in 4 % PFA and paraffin embedded. 4-μm sections were stained with picrosirius red. Images were acquired using a digital slide scanner (Nanozoomer S210 Digital Slide Scanner, Hamamatsu). Renal lesions were blindly examined by a renal pathologist. The extent of interstitial fibrosis was quantified using Image J software (NIH) on Sirius red scanned colored sections. In short, at least 20 random selected fields (original magnification, ×200) across the kidney cortex were analyzed per each kidney section, and the results were expressed as percentages of the total area of the selected fields.
For immunohistochemistry, 4-µm sections of paraffin-embedded kidneys were submitted for appropriate antigen retrieval by high pressure heating in a solution of Tris EDTA Tween or in a citrate solution. Then, sections were then incubated overnight at 4°C with the following antibodies: rabbit monoclonal anti-CD3 (Abcam, 1:100) and rat monoclonal anti- F4/80 (Biorad, 1:100). After washing, sections were incubated with appropriate amplification secondary antibody: biotin-coupled anti-rabbit (GE Healthcare) for CD3 and biotin-coupled anti-rat (Vector Laboratories) for F4/80, and then incubated with streptavidin coupled HRP (Southern). At the end, DAB (DAKO) staining was used to detect HRP. For quantification of CD3+ and F4/80+ renal cells, the degrees of cellular infiltrate were automatically quantified using ImageJ software (NIH) and expressed as a percentage of the surface area of the positive staining per field, in at least 10 random fields perp

[2] = test system: F. novicida (strain U112); type: cell-based
HCV replicon = type: cell-based; conditions: normalized mean of HCV replicon readout
HIV1 strain NL4-3 = type: cell-based; conditions: normalized mean of HIV1 replication readout
influenza A H1N1 virus = conditions: 48 hr post-treatment, A549
EBV = conditions: normalized mean of EBV replication readout

`CC[C@H]1[C@@H](O)[C@@H]2[C@H](CC[C@]3(C)[C@@H]([C@H](C)CCC(=O)O)CC[C@@H]23)[C@@]2(C)CC[C@@H](O)C[C@@H]12` [OCA, obeticholic acid, reference compound] was tested, and the liver portal fibrosis [1] was “significantly reduced portal fibrosis” and the liver portal inflammation [1] was “failed to alleviate portal inflammation”.

With “CPEP102: peptide of the viral peptide library; sequence page not shown (PHGPVQLSYYD)” the “Francisella novicida Norm AUC” value [2] was 0.8816, the “HCV Norm MEAN” value (HCV replicon) was 0.8145 and the “HIV1 Norm MEAN” value (HIV1 strain NL4-3) was 1.958. For the same compound, the “Neuraminidase activity normalized to vehicle” value (influenza A H1N1 virus; 200 µM peptide) was 0,8099, the “Neuraminidase activity normalized to vehicle” value (influenza A H1N1 virus; 0,823 µM peptide) was 0,6759 and the “Neuraminidase activity normalized to vehicle” value (influenza A H1N1 virus; 22,2 µM peptide) was 0,942. For the same compound, the “Neuraminidase activity normalized to vehicle” value (influenza A H1N1 virus; 2,4691 µM peptide) was 1,0283, the “Neuraminidase activity normalized to vehicle” value (influenza A H1N1 virus; 7,4074 µM peptide) was 0,877 and the “Neuraminidase activity normalized to vehicle” value (influenza A H1N1 virus; 66,6667 µM peptide) was 1,0125. The “EBV Norm MEAN” value (EBV) was 1.648.

DLYCYEQLNDSSEEEDE [CPEP125] was tested, and the “Francisella novicida Norm AUC” value [2] was 1.158, the “HCV Norm MEAN” value (HCV replicon; peptide screen) was 0.9031 and the “HIV1 Norm MEAN” value (HIV1 strain NL4-3; peptide screen) was 1.6. For the same compound, the “Neuraminidase activity normalized to vehicle” value (influenza A H1N1 virus; 200 µM peptide) was 0,7813, the “Neuraminidase activity normalized to vehicle” value (influenza A H1N1 virus; 0,823 µM peptide) was 1,0772 and the “Neuraminidase activity normalized to vehicle” value (influenza A H1N1 virus; 22,2 µM peptide) was 1,1403. The “Neuraminidase activity normalized to vehicle” value (influenza A H1N1 virus; 2,4691 µM peptide) was 0,9577, the “Neuraminidase activity normalized to vehicle” value (influenza A H1N1 virus; 7,4074 µM peptide) was 1,1015 and the “Neuraminidase activity normalized to vehicle” value (influenza A H1N1 virus; 66,6667 µM peptide) was 0,8979. The “EBV Norm MEAN” value (EBV; peptide screen) was 1.019.

For “CPEP52: peptide of the viral peptide library; sequence page not shown (CFITKALGISYG)”, the “Francisella novicida Norm AUC” value [2] was 2.021, the “HCV Norm MEAN” value (HCV replicon) was 0.3655 and the “HIV1 Norm MEAN” value (HIV1 strain NL4-3) was 5.563. The “Neuraminidase activity normalized to vehicle” value (influenza A H1N1 virus; 200 µM peptide) was 0,1673, the “Neuraminidase activity normalized to vehicle” value (influenza A H1N1 virus; 0,823 µM peptide) was 0,9576 and the “Neuraminidase activity normalized to vehicle” value (influenza A H1N1 virus; 22,2 µM peptide) was 1,0146. For the same compound, the “Neuraminidase activity normalized to vehicle” value (influenza A H1N1 virus; 2,4691 µM peptide) was 1,1215, the “Neuraminidase activity normalized to vehicle” value (influenza A H1N1 virus; 7,4074 µM peptide) was 0,9392 and the “Neuraminidase activity normalized to vehicle” value (influenza A H1N1 virus; 66,6667 µM peptide) was 0,5319. The “EBV Norm MEAN” value (EBV) was 2.225.

For RPEPTAPPEE [CPEP116], the “Francisella novicida Norm AUC” value [2] was 0.6494, the “HCV Norm MEAN” value (HCV replicon) was 1.054 and the “HIV1 Norm MEAN” value (HIV1 strain NL4-3) was 0.3699. The “Neuraminidase activity normalized to vehicle” value (influenza A H1N1 virus; 200 µM peptide) was 0,7624, the “Neuraminidase activity normalized to vehicle” value (influenza A H1N1 virus; 0,823 µM peptide) was 0,9564 and the “Neuraminidase activity normalized to vehicle” value (influenza A H1N1 virus; 22,2 µM peptide) was 0,683. For the same compound, the “Neuraminidase activity normalized to vehicle” value (influenza A H1N1 virus; 2,4691 µM peptide) was 0,8677, the “Neuraminidase activity normalized to vehicle” value (influenza A H1N1 virus; 7,4074 µM peptide) was 0,7015 and the “Neuraminidase activity normalized to vehicle” value (influenza A H1N1 virus; 66,6667 µM peptide) was 0,6644. For the same compound, the “EBV Norm MEAN” value (EBV) was 0.4152.

With “CPEP153: peptide of the viral peptide library; sequence page not shown (GRKKRRQRRR)” the “Francisella novicida Norm AUC” value [2] was 0.6851, the “HCV Norm MEAN” value (HCV replicon) was 0.3202 and the “HIV1 Norm MEAN” value (HIV1 strain NL4-3) was 0.7984. The “Neuraminidase activity normalized to vehicle” value (influenza A H1N1 virus; 200 µM peptide) was 0,9878, the “Neuraminidase activity normalized to vehicle” value (influenza A H1N1 virus; 0,823 µM peptide) was 1,0171 and the “Neuraminidase activity normalized to vehicle” value (influenza A H1N1 virus; 22,2 µM peptide) was 1,0832. The “Neuraminidase activity normalized to vehicle” value (influenza A H1N1 virus; 2,4691 µM peptide) was 1,0648, the “Neuraminidase activity normalized to vehicle” value (influenza A H1N1 virus; 7,4074 µM peptide) was 1,0014 and the “Neuraminidase activity normalized to vehicle” value (influenza A H1N1 virus; 66,6667 µM peptide) was 1,1029. For the same compound, the “EBV Norm MEAN” value (EBV) was 2.382.

For WKSKKTP [CPEP78], the “Francisella novicida Norm AUC” value [2] was 0.7597, the “HCV Norm MEAN” value (HCV replicon) was 0.1248 and the “HIV1 Norm MEAN” value (HIV1 strain NL4-3) was 1.618. The “Neuraminidase activity normalized to vehicle” value (influenza A H1N1 virus; 200 µM peptide) was 0,663, the “Neuraminidase activity normalized to vehicle” value (influenza A H1N1 virus; 0,823 µM peptide) was 0,9859 and the “Neuraminidase activity normalized to vehicle” value (influenza A H1N1 virus; 22,2 µM peptide) was 0,8841. For the same compound, the “Neuraminidase activity normalized to vehicle” value (influenza A H1N1 virus; 2,4691 µM peptide) was 0,8283, the “Neuraminidase activity normalized to vehicle” value (influenza A H1N1 virus; 7,4074 µM peptide) was 0,8644 and the “Neuraminidase activity normalized to vehicle” value (influenza A H1N1 virus; 66,6667 µM peptide) was 0,9037. For the same compound, the “EBV Norm MEAN” value (EBV) was 1.01.

With HGCPL [CPEP33] the “Francisella novicida Norm AUC” value [2] was 0.6368, the “HCV Norm MEAN” value (HCV replicon) was 0.1691 and the “HIV1 Norm MEAN” value (HIV1 strain NL4-3) was 0.2429. For the same compound, the “Neuraminidase activity normalized to vehicle” value (influenza A H1N1 virus; 200 µM peptide) was 0,999, the “Neuraminidase activity normalized to vehicle” value (influenza A H1N1 virus; 0,823 µM peptide) was 0,7063 and the “Neuraminidase activity normalized to vehicle” value (influenza A H1N1 virus; 22,2 µM peptide) was 0,8914. The “Neuraminidase activity normalized to vehicle” value (influenza A H1N1 virus; 2,4691 µM peptide) was 0,8619, the “Neuraminidase activity normalized to vehicle” value (influenza A H1N1 virus; 7,4074 µM peptide) was 0,7735 and the “Neuraminidase activity normalized to vehicle” value (influenza A H1N1 virus; 66,6667 µM peptide) was 1,0094. For the same compound, the “EBV Norm MEAN” value (EBV) was 1.339.

In the case of EVLADNLPPP [CPEP90], the “Francisella novicida Norm AUC” value [2] is reported as 1.209, the “HCV Norm MEAN” value (HCV replicon) is reported as 1.163 and the “HIV1 Norm MEAN” value (HIV1 strain NL4-3) is reported as 0.8397. For the same compound, the “Neuraminidase activity normalized to vehicle” value (influenza A H1N1 virus; 200 µM peptide) was 0,7518, the “Neuraminidase activity normalized to vehicle” value (influenza A H1N1 virus; 0,823 µM peptide) was 0,9901 and the “Neuraminidase activity normalized to vehicle” value (influenza A H1N1 virus; 22,2 µM peptide) was 0,7822. The “Neuraminidase activity normalized to vehicle” value (influenza A H1N1 virus; 2,4691 µM peptide) was 0,9469, the “Neuraminidase activity normalized to vehicle” value (influenza A H1N1 virus; 7,4074 µM peptide) was 0,8328 and the “Neuraminidase activity normalized to vehicle” value (influenza A H1N1 virus; 66,6667 µM peptide) was 0,7316. For the same compound, the “EBV Norm MEAN” value (EBV) was 1.561.

“CPEP83: peptide of the viral peptide library; sequence page not shown (LHGLSAFSLHSYS)” was tested, and the “Francisella novicida Norm AUC” value [2] was 1.204, the “HCV Norm MEAN” value (HCV replicon) was 0.4141 and the “HIV1 Norm MEAN” value (HIV1 strain NL4-3) was 3.012. For the same compound, the “Neuraminidase activity normalized to vehicle” value (influenza A H1N1 virus; 200 µM peptide) was 0,249, the “Neuraminidase activity normalized to vehicle” value (influenza A H1N1 virus; 0,823 µM peptide) was 0,6779 and the “Neuraminidase activity normalized to vehicle” value (influenza A H1N1 virus; 22,2 µM peptide) was 0,9424. The “Neuraminidase activity normalized to vehicle” value (influenza A H1N1 virus; 2,4691 µM peptide) was 0,9223, the “Neuraminidase activity normalized to vehicle” value (influenza A H1N1 virus; 7,4074 µM peptide) was 0,934 and the “Neuraminidase activity normalized to vehicle” value (influenza A H1N1 virus; 66,6667 µM peptide) was 0,7894. For the same compound, the “EBV Norm MEAN” value (EBV) was 0.5883.

For GARASVLS [CPEP108], the “Francisella novicida Norm AUC” value [2] was 1.458, the “HCV Norm MEAN” value (HCV replicon) was 0.178 and the “HIV1 Norm MEAN” value (HIV1 strain NL4-3) was 0.3412. For the same compound, the “Neuraminidase activity normalized to vehicle” value (influenza A H1N1 virus; 200 µM peptide) was 0,7289, the “Neuraminidase activity normalized to vehicle” value (influenza A H1N1 virus; 0,823 µM peptide) was 0,7112 and the “Neuraminidase activity normalized to vehicle” value (influenza A H1N1 virus; 22,2 µM peptide) was 0,9027. The “Neuraminidase activity normalized to vehicle” value (influenza A H1N1 virus; 2,4691 µM peptide) was 0,8479, the “Neuraminidase activity normalized to vehicle” value (influenza A H1N1 virus; 7,4074 µM peptide) was 0,9625 and the “Neuraminidase activity normalized to vehicle” value (influenza A H1N1 virus; 66,6667 µM peptide) was 0,8429. The “EBV Norm MEAN” value (EBV) was 0.7452.
